# Entries after “also recorded” stand apart in the source; their conditions may differ. Positions of bridges follow the written chain, without caps; N, C: chain ends. Non-standard residues stand in square brackets, D forms with d. Residues, ends and D or L forms follow the SMILES beside them.
# Experiments:
# [1] = molecular target: norepinephrine transporter (Homo sapiens, UniProt P23975); assay: biochemical
# [2] = test system: PC3 prostate carcinoma xenograft; assay: PC3 human prostate carcinoma xenograft model; format: in vivo, mouse; conditions: 7.5 mg/kg
# Experimental: Male BALB/c nu/nu mice (6-7 weeks old; Charles River Laboratories, Wilmington, Mass.) were injected with 5 million A549 or PC3 cells in the right thigh. When tumors reached a predetermined size (approximately 80-100 mm^3; 10-16 days after tumor cell implantation), treatment was initiated as follows: Group 1, saline control (daily×21 days); Group 2, GO-203-2c (7.5 mg/kg, 5 days on/2 days off×3 cycles); Group 3, GO-203-2c (7.5 mg/kg, daily×21 days). In the A549 study, Group 3 animals that still had palpable/measurable tumors at the end of the 21-day treatment period were administered an additional 9 days of GO-203-2c treatment (Group 3′), with a one week interim period between treatments.
# [3] = test system: ZR-75-1 Breast cancer cells; assay: Inhibition of cell proliferation, trypan blue exclusion (Table 1); format: cell-based, human; conditions: 5 μM peptide every day, 6-day treatment
# Experimental: (§1) Cells (ZR-75-1 breast carcinoma or H-1975 non-small cell lung carcinoma) were plated separately in 24-well plates for 24 hours prior to treatment with different peptides. The cells were then treated with 5 μM (final concentration) of different peptides every day for 4-6 days. On the day of termination, cells were washed two times with PBS and trypsinized with 0.3 ml of Trypsin/EDTA. Cell growth media was used to stop the trypsin reaction. Following washing, the cells were centrifuged and the cell pellets were re-suspended in PBS for counting in hemacytometer.
# (§2) The trypan blue dye exclusion method was used to determine the number of viable cells present in a cell suspension. Cell suspension was mixed as 1:1 with the trypan blue dye and then visually examined in a hemacytometer. A viable cell will have a clear cytoplasm whereas a non-viable/dead cell will be stained with trypan blue dye. By doing this trypan blue exclusion method, viable cell numbers were counted and percent inhibition of proliferation was then calculated comparing with untreated controls.
# MUC1-CD [4] = assay: MUC1-CD oligomerization in transfected HEK 293T cells, species comparison; format: cell-based; conditions: MUC1-CD from rat, dog and human compared
# Experimental: Studies were also conducted to confirm pharmacological relevance of the rodent and nonrodent species chosen for toxicology studies, namely the rat and dog, respectively. MUC1-CD amino acid sequence was determined to be greater than 80% identical between rat, dog and human proteins, and similar expression of MUC1 was found in stomach, intestinal and lung epithelium from the different species using immunohistochemical staining. […] The results of these studies indicate that potential MUC1-CD targets in the rat, dog and human are similar with respect to sequence, tissue expression and responsiveness to inhibition of oligomerization by GO-203-2c, and confirm pharmacological relevance of the species chosen for nonclinical safety assessment of GO-203-2c.
# MUC1-CD [5] = molecular target: T1, MUC1-CD (Homo sapiens, UniProt P15941); assay: MUC1-CD oligomerization in HEK 293T cells transfected with GFP- and Flag-tag MUC1-CD; format: cell-based; conditions: HEK 293T cells transfected with human MUC1-CD
# T1 construct: Mucin 1 (MUC1) oncoprotein cytoplasmic domain (MUC1-CD); expressed in transfected cells; host or cells: HEK 293T
# Description: This finding is not surprising based on a requirement for the cysteine residues in the GO-203-2 binding domain (CQCRRKN) to be available for binding with cysteine residues on the corresponding binding domain of the MUC1-CD protein.
# [6] = Pivotal repeat-dose rat toxicity study; format: in vivo; conditions: for Safety margin: human starting dose lower than NOAEL: 3 mg/m^2 human starting dose
# Experimental: The proposed clinical trial will be a multicenter, open-label, dose-escalation, safety, pharmacodynamic and pharmacokinetic study in patients with advanced solid tumors administered GO-203-2c IV over 60 min once per day for 21 consecutive days; this dosing regimen will be repeated every 28 days. Since the majority of the treatment-related findings in rats and dogs were localized at the infusion site or were secondary to the infusion site reactions, the no-observed-adverse-effect-level (NOAEL) for systemic toxicity in the pivotal repeat-dose rat toxicity study was determined to be 5 mg/kg/day. The highest non-severely toxic dose (HNSTD), which was also considered the NOAEL, was established as 1 mg/kg/day in the dog pivotal repeat-dose toxicity study. For vascular injury at the injection site, the NOAEL in rats is […]. This concentration rate is 25-fold greater than the estimated concentration rate for humans (0.83 μg/mL/min) at the recommended starting dose of 3 mg/m2/day (assumes a body mass of 1.65 m2).
# muscarinic M2 receptor = muscarinic M2 receptor (Homo sapiens, UniProt P08172); assay: biochemical
# H1975 Lung cancer cells = assay: Inhibition of cell proliferation, trypan blue exclusion (Table 2); format: cell-based, human; conditions: 5 μM peptide every day, 6-day treatment
# Experimental: as §1, §2
# [7] = Redox conversion in the presence of glutathione; format: physicochemical; conditions: in the presence of low levels of glutathione
# Description: The drug substance is isolated as the disulfide, with the disulfide bond cyclizing the D-cys10 and D-cys12 residues. The synthesis, cleavage, oxidation and purification steps use standard solid phase procedures as described in the literature. A solution phase procedure for converting the peptide to the cyclic disulfide was developed. […] The biological properties of GO-203-2c will in part be governed by glutathione, which provides a significant portion of in vivo redox buffering capacity as mentioned above. Total glutathione levels approximate 20-30 μM in blood plasma, 0.5 mM in whole blood, and 5-10 mM intracellularly. […] Intracellular glutathione concentrations are sufficient to convert GO-203-2c (disulfide) to the GO-203-2 (dithiol) species that binds to the biological target, MUC1-CD.
# adrenergic α1B receptor = adrenergic α1B receptor (Homo sapiens, UniProt P35368); assay: biochemical
# [8] = test system: MiaPaCa pancreatic carcinoma xenograft; assay: MiaPaCa human pancreatic carcinoma xenograft model, GO-203-2c IV; format: in vivo, mouse
# Experimental: Male BALB/c nu/nu mice (8 weeks old; Charles River Laboratories, Wilmington, Mass.) were injected with 2.5 million MiaPaCa cells in the right thigh. When tumors reached a predetermined size (approximately 100 mm^3; 34 days after tumor cell implantation), mice (8 per group) were administered normal saline (control) or GO-203-2c (10 mg/kg) IV daily for 21 consecutive days. At the end of the treatment period, and following a one week interim period, animals that received GO-203-2c initially were administered an additional series of GO-203-2c daily injections.
# [9] = 10 mg/kg IV daily for 21 consecutive days
# muscarinic M2 receptor, sequence (P08172 whole entry): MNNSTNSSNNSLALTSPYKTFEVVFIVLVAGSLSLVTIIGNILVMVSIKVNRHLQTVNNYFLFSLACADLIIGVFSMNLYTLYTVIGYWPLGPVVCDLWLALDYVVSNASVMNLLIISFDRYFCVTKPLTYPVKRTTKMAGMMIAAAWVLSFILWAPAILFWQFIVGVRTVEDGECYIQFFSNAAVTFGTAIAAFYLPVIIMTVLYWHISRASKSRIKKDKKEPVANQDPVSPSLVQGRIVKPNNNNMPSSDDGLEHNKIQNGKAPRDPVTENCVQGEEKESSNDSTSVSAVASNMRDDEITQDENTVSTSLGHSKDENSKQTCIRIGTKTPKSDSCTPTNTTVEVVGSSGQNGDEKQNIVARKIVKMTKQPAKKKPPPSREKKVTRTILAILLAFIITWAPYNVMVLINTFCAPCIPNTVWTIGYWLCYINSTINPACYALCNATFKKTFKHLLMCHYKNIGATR
# adrenergic α1B receptor, sequence (P35368 whole entry): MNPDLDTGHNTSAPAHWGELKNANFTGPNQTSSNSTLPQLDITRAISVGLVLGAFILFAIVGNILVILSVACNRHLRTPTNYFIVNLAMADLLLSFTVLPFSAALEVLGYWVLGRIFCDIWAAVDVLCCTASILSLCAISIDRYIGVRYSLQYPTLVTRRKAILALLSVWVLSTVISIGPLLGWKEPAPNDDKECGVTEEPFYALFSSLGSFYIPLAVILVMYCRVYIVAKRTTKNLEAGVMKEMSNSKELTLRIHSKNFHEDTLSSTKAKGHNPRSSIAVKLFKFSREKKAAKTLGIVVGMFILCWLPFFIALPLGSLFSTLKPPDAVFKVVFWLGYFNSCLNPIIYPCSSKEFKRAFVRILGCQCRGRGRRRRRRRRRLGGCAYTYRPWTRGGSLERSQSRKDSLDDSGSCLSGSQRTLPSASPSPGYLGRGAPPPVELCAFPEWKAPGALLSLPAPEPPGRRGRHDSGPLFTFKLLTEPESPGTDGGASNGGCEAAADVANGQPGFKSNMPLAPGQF
# T1 sequence (P15941 1182-1255 limits assumed): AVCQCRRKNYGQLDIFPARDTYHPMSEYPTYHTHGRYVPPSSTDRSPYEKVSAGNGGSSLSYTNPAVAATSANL
# norepinephrine transporter, sequence (P23975 whole entry, species assumed): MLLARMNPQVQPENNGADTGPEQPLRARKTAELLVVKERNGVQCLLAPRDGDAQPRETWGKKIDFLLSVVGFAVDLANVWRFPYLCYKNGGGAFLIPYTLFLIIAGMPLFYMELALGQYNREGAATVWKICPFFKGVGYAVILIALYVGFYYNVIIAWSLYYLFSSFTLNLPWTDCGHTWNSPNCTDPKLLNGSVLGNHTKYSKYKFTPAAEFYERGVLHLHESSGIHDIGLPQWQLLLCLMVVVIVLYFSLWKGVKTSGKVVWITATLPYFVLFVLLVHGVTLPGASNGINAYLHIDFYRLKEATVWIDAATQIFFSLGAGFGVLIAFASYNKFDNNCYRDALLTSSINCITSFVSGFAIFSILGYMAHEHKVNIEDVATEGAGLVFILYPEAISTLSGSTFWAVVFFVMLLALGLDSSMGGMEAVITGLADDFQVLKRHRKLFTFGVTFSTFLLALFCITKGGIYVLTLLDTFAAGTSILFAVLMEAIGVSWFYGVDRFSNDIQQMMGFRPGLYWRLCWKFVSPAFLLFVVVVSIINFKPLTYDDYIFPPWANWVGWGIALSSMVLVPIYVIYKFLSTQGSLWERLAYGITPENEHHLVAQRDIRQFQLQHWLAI
smiles,measurement,setting,value
"CC(=O)N[C@H](CCCNC(=N)N)C(=O)N[C@H](CCCNC(=N)N)C(=O)N[C@H](CCCNC(=N)N)C(=O)N[C@H](CCCNC(=N)N)C(=O)N[C@H](CCCNC(=N)N)C(=O)N[C@H](CCCNC(=N)N)C(=O)N[C@H](CCCNC(=N)N)C(=O)N[C@H](CCCNC(=N)N)C(=O)N[C@H](CCCNC(=N)N)C(=O)N[C@@H]1CSSC[C@H](C(=O)N[C@H](CCCNC(=N)N)C(=O)N[C@H](CCCNC(=N)N)C(=O)N[C@H](CCCCN)C(=O)N[C@H](CC(N)=O)C(N)=O)NC(=O)[C@@H](CCC(N)=O)NC1=O [GO-203-2c, Ac-(D)Arg-(D)Arg-(D)Arg-(D)Arg-(D)Arg-(D)Arg-(D)Arg-(D)Arg-(D)Arg-(D)Cys-(D)Gln-(D)Cys-(D)Arg-(D)Arg-(D)Lys-(D)Asn-NH2 disulfide] (Ac-[dR][dR][dR][dR][dR][dR][dR][dR][dR][dC][dQ][dC][dR][dR][dK][dN]-NH2; disulfide 10-12)",IC50,[1],3 to 8 µM
same,Tumor response,[2]; 5 days on/2 days off x 3 cycles,complete growth arrest and regression; also recorded: tumor growth was immediately arrested and tumors regressed
same,Tumor response,[2]; daily x 21 days,complete growth arrest and regression; also recorded: tumor growth was immediately arrested and tumors regressed
same,Avg (viable cell number of Groups 1-3),[3],9.83
same,% inhibition,[3]; vs untreated control,58.69%
same,"Group-1 (viable cell number, individual well)","[3]; well having 10,000 cells",9.18
same,"Group-2 (viable cell number, individual well)","[3]; well having 10,000 cells",11.22
same,"Group-3 (viable cell number, individual well)","[3]; well having 10,000 cells",8.55
same,Inhibition of MUC1-CD oligomerization,MUC1-CD [4],in an equivalent manner
same,Inhibition of MUC1-CD oligomerization,MUC1-CD [5],inhibition
same,Rat injection-site NOAEL concentration rate relative to estimated human concentration rate (0.83 μg/mL/min),[6]; human starting dose of 3 mg/m2/day,25 fold
same,NOAEL,"[6]; in vivo, rat, repeat-dose IV, read-out: NOAEL for systemic toxicity",5 mg/kg/day
same,NOAEL (systemic),"[6]; rat, body surface area basis",30 mg/m2/day
same,Safety margin: human starting dose lower than NOAEL,"[6]; rat, mg/kg basis",62 fold
same,Safety margin: human starting dose lower than NOAEL,"[6]; rat, mg/m^2 basis",10 fold
same,NOAEL for vascular injury at the injection site (concentration rate),[6]; rats,20.8 µg/mL/min
same,IC50,muscarinic M2 receptor,3 to 8 µM
same,Avg (viable cell number of Groups 1-3),H1975 Lung cancer cells,7.2
same,% inhibition,H1975 Lung cancer cells; vs untreated control,60.7%
same,"Group-1 (viable cell number, individual well)","H1975 Lung cancer cells; well having 10,000 cells",8.47
same,"Group-2 (viable cell number, individual well)","H1975 Lung cancer cells; well having 10,000 cells",7.13
same,"Group-3 (viable cell number, individual well)","H1975 Lung cancer cells; well having 10,000 cells",6.02
same,Conversion of disulfide to reduced (dithiol) form,[7],readily re-forms the reduced (dithiol) GO-203-2 peptide
same,IC50,adrenergic α1B receptor,3 to 8 µM
same,Mice tumor-free,[8]; [9],2 of 8 and Two out of 8
same,Tumor response,[8]; [9],significant arrest of tumor growth; also recorded: tumor growth delay
same,Tumor response after re-dosing,[8]; another cycle of daily IV 10 mg/kg from day 29,"somewhat stabilized, with a very slow growth"
same,Average tumor size on day 29,"[8]; six remaining mice after 7-day rest period, at start of re-dosing",~400 mm^3

# Source: patent publication US8685928B2, “Antagonists of MUC1” (Dana-Farber Cancer Institute, Inc., priority 2010, dated 2014)
